ChEMBL document CHEMBL1151483, “Hantupeptin A, a cytotoxic cyclic depsipeptide from a Singapore collection of Lyngbya majuscula” (J Nat Prod, 2009)
Activity calls are given as the source filed them. The rule behind the calls is not given here.

What was measured:
LoVo = assay: Cytotoxicity against human LoVo cells at 10 ug/mL after 24 hrs by MTT assay; format: functional, cell-based
KB = assay: Cytotoxicity against human KB cells at 10 ug/mL after 24 hrs by MTT assay; format: functional, cell-based
MCF7 = assay: Cytotoxicity against human MCF7 cells after 24 hrs by MTT assay; format: functional, cell-based; settings: MCF7, 24 h
[1] = Toxicity in brine shrimp at 10 ppm; format: organism-based; settings: artemia, in vivo; read-out: Activity
MOLT-4 = assay: Cytotoxicity against human MOLT4 cells after 24 hrs by MTT assay; format: functional, cell-based; settings: MOLT-4, 24 h
[2] = Toxicity in brine shrimp at 100 ppm; format: organism-based; settings: artemia, in vivo; read-out: Activity

Compound | Activity (LoVo) | Activity (KB) | IC50 (MCF7) | mortality at 10 ppm [1] | IC50 (MOLT-4) | mortality at 100 ppm [2]
C#CCCC[C@H]1OC(=O)[C@H]([C@@H](C)CC)NC(=O)[C@@H]2CCCN2C(=O)[C@H](Cc2ccccc2)OC(=O)[C@H](C(C)C)N(C)C(=O)[C@H](C(C)C)NC(=O)[C@H]1C | inactive | inactive |  |  |  | 
C#CCCC[C@@H]1OC(=O)[C@H](C(C)C)N(C)C(=O)[C@@H]2CCCN2C(=O)[C@H](Cc2ccccc2)OC(=O)[C@H]([C@@H](C)CC)N(C)C(=O)[C@H](C(C)C)NC(=O)C1C (stereo partly drawn) [HANTUPEPTIN A] | inactive | inactive | 4 µM | 100% | 0.032 µM | 100%
